In patent US9512105B2, “1-substituted 4-arylpiperazine as kappa opioid receptor antagonists” (RESEARCH TRIANGLE INSTITUTE, priority 2011, dated 2016):
Where two headings read alike, the source gives them in different places.

Experiments:
[1] = molecular target: T1, cloned human μ-opioid receptor (Homo sapiens, UniProt P35372); test: Inhibition of DAMGO-stimulated [35S]GTPγS binding; assay type: biochemical
T1 construct: expressed in transfected cells

[2] = molecular target: T2, cloned human δ-opioid receptor (Homo sapiens, UniProt P41143); test: Inhibition of DPDPE-stimulated [35S]GTPγS binding; assay type: biochemical
T2 construct: expressed in transfected cells

[3] = molecular target: T3, cloned human κ-opioid receptor (Homo sapiens, UniProt P41145); test: Inhibition of U69,593-stimulated [35S]GTPγS binding; assay type: biochemical; conditions: for δ/κ / μ/κ: ratio of Ke values; for δ/κ: selectivity for κ relative to δ; for μ/κ: selectivity for κ relative to μ
T3 construct: expressed in transfected cells

[4] = antagonism of DAMGO-stimulated [35S]GTPγS binding, cloned human μ receptor, read-out: μ, DAMGO Ke
[5] = antagonism of DPDPE-stimulated [35S]GTPγS binding, cloned human δ receptor, read-out: δ, DPDPE Ke
[6] = antagonism of U69,593-stimulated [35S]GTPγS binding, cloned human κ receptor, read-out: κ, U69,593 Ke

T3 sequence (P41145 whole entry): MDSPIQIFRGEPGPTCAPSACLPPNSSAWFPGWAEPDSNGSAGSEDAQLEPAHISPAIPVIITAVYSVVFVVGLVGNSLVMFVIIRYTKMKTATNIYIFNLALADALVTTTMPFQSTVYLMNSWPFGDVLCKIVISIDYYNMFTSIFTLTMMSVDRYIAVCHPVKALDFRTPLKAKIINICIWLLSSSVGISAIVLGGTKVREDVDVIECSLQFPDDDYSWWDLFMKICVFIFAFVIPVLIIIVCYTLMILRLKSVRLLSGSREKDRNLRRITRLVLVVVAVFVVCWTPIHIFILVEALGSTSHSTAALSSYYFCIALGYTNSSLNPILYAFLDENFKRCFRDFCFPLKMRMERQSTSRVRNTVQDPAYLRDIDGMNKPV
T2 sequence (P41143 whole entry): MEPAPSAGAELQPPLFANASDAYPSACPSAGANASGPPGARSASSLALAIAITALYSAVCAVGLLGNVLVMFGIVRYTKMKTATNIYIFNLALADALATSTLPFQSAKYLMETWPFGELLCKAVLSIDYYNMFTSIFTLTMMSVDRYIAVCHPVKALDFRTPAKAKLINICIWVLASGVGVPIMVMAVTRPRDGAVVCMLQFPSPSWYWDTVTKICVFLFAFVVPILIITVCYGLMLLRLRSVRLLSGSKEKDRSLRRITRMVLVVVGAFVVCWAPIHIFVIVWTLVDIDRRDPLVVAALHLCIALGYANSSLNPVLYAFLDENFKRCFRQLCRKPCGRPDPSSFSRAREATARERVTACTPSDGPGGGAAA
T1 sequence (P35372 whole entry): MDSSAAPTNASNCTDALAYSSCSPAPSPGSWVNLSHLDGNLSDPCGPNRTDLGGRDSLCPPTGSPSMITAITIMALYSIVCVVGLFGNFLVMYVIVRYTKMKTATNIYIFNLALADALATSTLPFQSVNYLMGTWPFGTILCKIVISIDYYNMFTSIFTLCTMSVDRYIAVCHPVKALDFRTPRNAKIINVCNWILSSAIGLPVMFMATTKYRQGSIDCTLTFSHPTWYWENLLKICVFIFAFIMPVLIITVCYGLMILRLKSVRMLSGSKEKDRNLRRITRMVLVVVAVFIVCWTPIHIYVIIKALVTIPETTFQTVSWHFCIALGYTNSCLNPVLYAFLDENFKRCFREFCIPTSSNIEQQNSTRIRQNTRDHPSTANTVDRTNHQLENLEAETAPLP

Row | Structure (SMILES) | Kb [1, 4] | Kb [2, 5] | efficacy for the κ opioid receptor in words ([3]; [35S]GTPγS in vitro functional assay) | Kb [3, 6] | melting point | δ/κ [3] | μ/κ [3] | δ/κ ([3]; Dihydrochloride) | Kb [1] | Kb [2] | Kb [3]
1 | Cc1cccc(Oc2ccc(C(=O)N[C@H](CN3CCN(c4cccc(O)c4)[C@@H](C)C3)C(C)C)cc2Cl)c1.Cl.Cl [Compound 6l, 3-Chloro-N-[(2S)-1-[(3S)-4-(3-hydroxyphenyl)-3-methylpiperazin-1-yl]-3-methylbutan-2-yl]-4-(3-methylphenoxy)benzamide Dihydrochloride] | 0.043 ± 0.01 µM | 1.1 ± 0.262 µM | high efficacy (low Ke values) | 0.00029 ± 0.00013 µM | 154 to 158 °C | – | – | – | – | – | –
2 | Cc1cc(C)cc(Oc2ccc(C(=O)N[C@H](CN3CCN(c4cccc(O)c4)[C@@H](C)C3)C(C)C)cc2)c1.Cl.Cl [Compound 19f, 4-(3,5-Dimethylphenoxy)-N-[(1S)-1-{[(3S)-4-(3-hydroxyphenyl)-3-methylpiperazin-1-yl]methyl}-2-methylpropyl]benzamide Dihydrochloride] | 0.025 ± 0.007 µM | 0.078 ± 0.02 µM | – | 0.00098 ± 6e-05 µM | 117 to 120 °C | 80 | 26 | – | – | – | –
3 | Cc1ccc(O)c(Oc2ccc(C(=O)N[C@H](CN3CCN(c4cccc(O)c4)[C@@H](C)C3)C(C)C)cc2Cl)c1.Cl.Cl [Compound 19p, 3-Chloro-4-(2-hydroxy-5-methylphenoxy)-N-[(1S)-1-{[(3S)-4-(3-hydroxyphenyl)-3-methylpiperazin-1-yl]methyl}-2-methylpropyl]benzamide Dihydrochloride] | 0.0082 ± 0.0017 µM | 0.015 ± 0.0036 µM | – | 0.003 ± 0.0011 µM | 145 to 148 °C | 5 | 3 | – | – | – | –
4 | Cc1cccc(Oc2ccc(C(=O)N[C@H](CN3CCN(c4cccc(O)c4)[C@@H](C)C3)C(C)C)cc2)c1O.Cl.Cl [Compound 19e, 4-(2-Hydroxy-3-methylphenoxy)-N-[(2S)-1-[(3S)-4-(3-hydroxyphenyl)-3-methylpiperazin-1-yl]-3-methylbutan-2-yl]benzamide Dihydrochloride] | 0.0238 ± 0.0089 µM | 0.0927 ± 0.014 µM | – | 0.00034 ± 0.00016 µM | 173 °C | – | – | – | – | – | –
5 | Cc1cccc(Oc2ccc(C(=O)N[C@H](CN3CCN(c4cccc(O)c4)[C@@H](C)C3)C(C)C)cc2C)c1.Cl.Cl [Compound 19g, N-[(2S)-1-[(3S)-4-(3-Hydroxyphenyl)-3-methylpiperazin-1-yl]-3-methylbutan-2-yl]-3-methyl-4-(3-methylphenoxy)benzamide Dihydrochloride] | 0.0144 ± 0.0039 µM | 0.021 ± 0.006 µM | – | 0.00016 ± 3e-05 µM | 124 to 130 °C | – | – | 131 | – | – | –
6 | Cc1cccc(Oc2ccc(C(=O)N[C@H](CN3CCN(c4cccc(O)c4)[C@@H](C)C3)C(C)C)cc2O)c1.Cl.Cl [Compound 19i, 3-Hydroxy-N-[(2S)-1-[(3S)-4-(3-hydroxyphenyl)-3-methylpiperazin-1-yl]-3-methylbutan-2-yl]-4-(3-methylphenoxy)benzamide Dihydrochloride] | 0.0137 ± 0.0056 µM | 0.081 ± 0.035 µM | – | 0.00057 ± 0.00014 µM | 195 to 200 °C | 142 | 24 | – | – | – | –
7 | CC(C)[C@@H](CN1CCN(c2cccc(O)c2)[C@@H](C)C1)NC(=O)c1ccc(Oc2cccc(C(F)(F)F)c2)cc1 [Compound 19b, N-[(1S)-1-{[(3S)-4-(3-Hydroxyphenyl)-3-methylpiperazin-1-yl]methyl}-2-methylpropyl]-4-[3-(trifluoromethyl)phenoxy]benzamide] | – | – | – | – | 110 to 115 °C | 45 | 18 | – | 0.021 ± 0.0072 µM | 0.054 ± 0.019 µM | 0.0012 ± 0.00035 µM
8 | CC(C)[C@@H](CN1CCN(c2cccc(O)c2)[C@@H](C)C1)NC(=O)c1ccc(Oc2ccccc2)nc1.Cl.Cl.Cl [Compound 7b, N-[(2S)-1-[(3S)-4-(3-Hydroxyphenyl)-3-methylpiperazin-1-yl]-3-methylbutan-2-yl]-6-phenoxypyridine-3-carboxamide Trihydrochloride] | – | – | – | – | 168 to 170 °C | 1119 | 38 | – | 0.06 ± 0.011 µM | 1.79 ± 0.063 µM | 0.0016 ± 0.0003 µM
